Laboratory results from patent US20250161180A1, “NOVEL USE OF 4-AMIDINO BENZYLAMINES” (DSM IP Assets B.V., priority 2022, published 2025).

Test system: collagen type 1
Test: in vitro dermal fibroblast collagen assay (collagen 1 immunolabeling, flow cytometry)
Format: cell-based, human
Conditions: for Collagen 1 expression relative to untreated (%): normal human dermal fibroblasts, 72 hours, mean (n = 4), untreated = 100%
Method: Amidinobenzyl Benzylsulfonyl D-Seryl Homophenylalaninamide Acetate (ABSHA) was evaluated for its effect on collagen type 1. This was done using an in vitro dermal fibroblast collagen assay.
Normal human dermal fibroblasts were seeded in cell culture medium (Dulbecco's Modified Eagle Medium supplemented with 10% serum and 1% antibiotics) and allowed to adhere in a humidified cell incubator maintaining 37° C. and 5% CO2. Afterwards, the cells were starved with culture medium without serum for 16-24 hours to synchronize the cells their cell cycle. The starvation medium was removed and cell culture medium+SYN®-UP at various concentrations was added to the cells. The cells were treated for 72 hours. The cells were then fixated and immunolabeled with antibodies specific for collagen 1. These labeled cells were analyzed using flow cytometry and compared to the untreated ones (medium without SYN®-UP).
Table 1. […] Data are normalized to the untreated control (100%) and expressed as the mean±SD (n=4).

N=C(N)c1ccc(CNC(=O)C(CCc2ccccc2)NC(=O)C(CO)NS(=O)(=O)Cc2ccccc2)cc1 [ABSHA, Amidinobenzyl Benzylsulfonyl D-Seryl Homophenylalaninamide Acetate]
effect on collagen type 1 expression (in words) (in vitro dermal fibroblast collagen assay): increases collagen expression
Collagen 1 expression relative to untreated (%) (1 μM): 144%
Collagen 1 expression relative to untreated (%) (5 μM): 160%
Collagen 1 expression relative to untreated (%) (25 μM): 185%
Collagen 1 expression relative to untreated (%) (concentration printed only as "μM" (figure missing)): 188%
